# Test results taken from US20240109897A1, “MODULATORS OF FPR1 AND METHODS OF USING THE SAME” (BEIJING TIANTAN HOSPITAL, priority 2021, published 2024).
# Assays:
# ICH mice [1] = assay: Brain water content in ICH mouse model; assay type: in vivo; settings: 5 mg/kg/daily i.p., first dose 1 h after ICH onset, 24 h, vs vehicle
# Excerpt: (§1) The intracerebral hemorrhage (ICH) model in mice was used to illustrate the protective benefits of the compounds of this disclosure, and FIG. 1 depicts the procedure in preparing this model. ICH was induced in C57 B/L6 male mice by the injection of an autologous blood or collagenase as previously described (Lauer et al., Circulation 124: 1654-1662 (2011); Rynkowski et al., Nat. Protoc. 3:122-128 (2008)). Mice were anesthetized using isoflurane inhalation and fixed on a stereotactic frame. A burr hole was drilled on the right side of the skull at 2.3 mm lateral to the midline and 0.5 mm anterior to the bregma. For the autologous blood model, 30 μl of non-heparinized blood was withdrawn from the angular vein. The first 5 μl blood was injected at a depth of 3 mm beneath the hole, and the rest 25 μl blood were injected at 3.7 mm beneath the hole with a rate of 1 μl/min. In the collagenase model, 0.038 U of the bacterial collagenase (in 0.5 μl saline) was infused to the striatum (0.5 mm anterior, 2.3 mm right lateral, and 3.5 mm deep relative to bregma) at a speed of 0.5 μl/min. Mice on the sham control were injected with an equal volume of saline. Throughout the procedure, the body temperature was maintained at 37° C. with a homeothermic blanket. After the surgery, mice were under observation with free access to food and water. […]
# Brain water content was measured at day 1 after ICH. […]
# ICH mice [2] = assay: Brain infiltrating neutrophils by flow cytometry in ICH mouse model; assay type: in vivo; settings: vs vehicle
# Excerpt: as §1, with “μl/min.” for “μl/min. Mice on the sham control were injected with an equal volume of saline. Throughout the procedure, the body temperature was maintained at 37° C. with a homeothermic blanket. After the surgery, mice were under observation with free access to food and water.”
# Single cell suspension of brain tissues was prepared and stained with fluorochrome-conjugated antibodies. […] Flow cytometric measurements were performed on a FACS Aria III (BD Bioscience) and analyzed using Flowjo 7.6 software (Informer Technologies, Ashland, OR, USA).
# FPR1 = biological target: T1, FPR1 (UniProt P21462); assay: fMLP-FPR1 mediated calcium signaling assay in FPR1-overexpressing 293T cells; assay type: cell-based, human or mouse; settings: inhibition of fMLP-FPR1 mediated intracellular calcium change; hFPR1 or mFPR1 overexpressing 293T cells; 10 min preincubation; INDO-1 AM, FACS
# T1 sequence (P21462 1-350): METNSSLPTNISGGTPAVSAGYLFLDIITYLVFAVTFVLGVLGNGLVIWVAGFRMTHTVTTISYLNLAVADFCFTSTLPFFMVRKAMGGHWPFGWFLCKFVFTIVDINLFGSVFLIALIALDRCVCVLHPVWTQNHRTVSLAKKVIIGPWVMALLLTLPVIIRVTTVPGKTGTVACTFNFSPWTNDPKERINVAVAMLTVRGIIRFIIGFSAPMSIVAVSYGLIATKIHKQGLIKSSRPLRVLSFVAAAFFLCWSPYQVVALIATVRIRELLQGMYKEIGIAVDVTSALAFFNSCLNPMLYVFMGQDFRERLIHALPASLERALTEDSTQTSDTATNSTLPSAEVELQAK
# Protocol: The effects of the compounds of this disclosure on regulating the FPR1-mediated cell signaling were measured by monitoring the cellular calcium level change, as illustrated by the exemplary examples in Table 2. The dose response of the illustrated examples are reported categorically using the following ranking criteria: *** (IC50≤100 nM); ** (IC50≥100 to ≤1000 nM); * (IC50≥1000 to ≤10,000 nM); N.D.—not detected.
# The coding DNA sequence (CDS) of human FPR1 (NM_001193306) and mouse FPR1 (NM_013521) were cloned and inserted to the lentivirus vector GV367 (Vector information:http://www.genechem.com.cn/index/supports/tool_search.html?keywords=GV367) under the conduction of pCMV promoter. 293T cells were cultured in H-DMEM supplemented with 10% FBS and 1% penicillin-streptomycin (PS) at 37° C. in 5% CO2 Incubator. 293T cells were transfected with lentivirus vector GV367 containing the CDS of human or mouse FPR1 for 24 h and then cultured with complete medium for another 48 h. At 72 h after transfected, cells were passaged, and 5 μg/ml puromycin was added to screen FPR1-transfected 293T cells. The overexpression of human or mouse FPR1 in 293 T cells were detected by immunostaining with anti-mouse or human FPR1 antibodies (Biolegend or Antibody Online).
# Cultured hFPR1 or mFPR1 overexpressing 293T cells were labeled with 1 μM INDO-1 AM calcium sensor dye (eBioscience) for 30 min at 37° C. After washed with 1×PBS, cells were resuspended with H-DMEM containing 3% FBS, and were maintained on ice prior to the measurement of intracellular calcium concentration. To measure the inhibitory potency of designed potential FPR1 antagonists, hFPR1 or mFPR1 overexpressing 293T cells were incubated with the compound for 10 min at room temperature. The cytoplasmic calcium levels were then measured by FACS Aria III at 37° C. prior to and after the stimulation of fMLP. We defined the immunofluorescence intensity of indo-1 AM before adding fMLP as the basal value, and the intensity at the peak immunofluorescence reduction after adding fMLP as minimum value for each sample. The change of intracellular calcium was calculated as follow: (basal value−minimum value)/basal value×100%. The IC50 of each compound in inhibiting fMLP-FPR1 mediated intracellular calcium concentration in 293T cells were automatically calculated with Prism 8.0.2 software (GraphPad) after inputting a series of change of intracellular calcium at multiple concentration gradients (from 0 nM to 100 μM).
smiles,measurement,setting,value
"Cc1ccc(O)c(-c2[nH]nc3c2C(c2ccc(C(F)(F)F)cc2)N(C2CCOCC2)C3=O)c1 (racemic) [Compound 1, Rac-3-(2-hydroxy-5-methylphenyl)-5-(tetrahydro-2H-pyran-4-yl)-4-(4-(trifluoromethyl)phenyl)-4,5-dihydropyrrolo[3,4-c]pyrazol-6(2H)-one]",total brain water content,ICH mice [1],significantly reduced
same,reduction of total number of brain-infiltrated neutrophils,"ICH mice [2]; Day 3, 5 mg/kg i.p.",54%
same,reduction of total number of brain-infiltrated neutrophils,"ICH mice [2]; Day-1, 5 mg/kg i.p.",47%
same,IC50,FPR1,0.1 to 1 µM
